From US20210253575A1, “PYRROLIDINE AMINE COMPOUNDS FOR THE TREATMENT OF AUTOIMMUNE DISEASE” (Hoffmann-La Roche Inc., priority 2018, published 2021)

Target: T1, human TLR7 (Homo sapiens, UniProt Q9NYK1)
T1 sequence (Q9NYK1 27-1049): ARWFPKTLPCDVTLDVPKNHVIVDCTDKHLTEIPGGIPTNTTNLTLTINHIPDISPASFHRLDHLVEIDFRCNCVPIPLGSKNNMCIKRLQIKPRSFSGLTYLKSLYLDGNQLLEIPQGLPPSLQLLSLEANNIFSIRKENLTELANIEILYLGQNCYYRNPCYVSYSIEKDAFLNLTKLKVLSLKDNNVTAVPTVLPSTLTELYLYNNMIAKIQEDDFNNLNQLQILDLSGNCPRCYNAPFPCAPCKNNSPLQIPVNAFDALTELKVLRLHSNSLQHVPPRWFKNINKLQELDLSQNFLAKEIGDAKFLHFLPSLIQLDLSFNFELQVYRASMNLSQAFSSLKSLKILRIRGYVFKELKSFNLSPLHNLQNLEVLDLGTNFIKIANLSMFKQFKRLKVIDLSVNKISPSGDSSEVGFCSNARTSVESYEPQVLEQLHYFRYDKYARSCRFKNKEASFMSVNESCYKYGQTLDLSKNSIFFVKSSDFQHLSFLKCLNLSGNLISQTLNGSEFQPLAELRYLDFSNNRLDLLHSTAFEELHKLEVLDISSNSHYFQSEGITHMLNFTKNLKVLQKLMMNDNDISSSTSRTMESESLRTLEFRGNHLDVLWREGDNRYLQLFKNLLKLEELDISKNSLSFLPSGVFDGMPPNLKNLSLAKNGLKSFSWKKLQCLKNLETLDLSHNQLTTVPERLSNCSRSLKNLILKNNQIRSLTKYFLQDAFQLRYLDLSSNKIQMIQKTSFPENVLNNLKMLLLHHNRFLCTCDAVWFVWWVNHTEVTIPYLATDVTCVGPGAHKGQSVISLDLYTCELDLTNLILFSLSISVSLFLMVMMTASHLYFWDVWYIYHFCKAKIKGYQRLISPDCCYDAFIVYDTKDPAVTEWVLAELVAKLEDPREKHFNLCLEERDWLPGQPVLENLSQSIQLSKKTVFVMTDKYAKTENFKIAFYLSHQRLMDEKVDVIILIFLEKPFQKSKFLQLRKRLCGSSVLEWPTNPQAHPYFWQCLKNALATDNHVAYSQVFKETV
Experiment: HEK293-Blue-hTLR-7 cells assay (SEAP reporter, R848 stimulation)
Assay type: cell-based
Conditions: HEK293-Blue-hTLR7 cells, R848 ligand, 20 hrs incubation
Procedure: The following tests were carried out in order to determine the activity of the compounds of formula (I) in HEK293-Blue-hTLR-7/8/9 cells assay.
HEK293-Blue-hTLR-7 Cells Assay:
A stable HEK293-Blue-hTLR-7 cell line was purchased from InvivoGen (Cat. #: hkb-htlr7, San Diego, Calif., USA). These cells were originally designed for studying the stimulation of human TLR7 by monitoring the activation of NF-κB. A SEAP (secreted embryonic alkaline phosphatase) reporter gene was placed under the control of the IFN-β minimal promoter fused to five NF-κB and AP-1-binding sites. The SEAP was induced by activating NF-κB and AP-1 via stimulating HEK-Blue hTLR7 cells with TLR7 ligands. Therefore the reporter expression was declined by TLR7 antagonist under the stimulation of a ligand, such as R848 (Resiquimod), for incubation of 20 hrs. The cell culture supernatant SEAP reporter activity was determined using QUANTI-Blue™ kit (Cat. #: rep-qb1, Invivogen, San Diego, Ca, USA) at a wavelength of 640 nm, a detection medium that turns purple or blue in the presence of alkaline phosphatase.
HEK293-Blue-hTLR7 cells were incubated at a density of 250,000-450,000 cells/mL in a volume of 170 μL in a 96-well plate in Dulbecco's Modified Eagle's medium (DMEM) containing 4.5 g/L glucose, 50 U/mL penicillin, […], […], 2 mM L-glutamine, 10% (v/v) heat-inactivated fetal bovine serum with addition of 20 μL test compound in a serial dilution in the presence of final DMSO at 1% and 10 μL of 20 uM R848 in above DMEM, perform incubation under 37° C. in a CO2 incubator for 20 hrs. Then 20 μL of the supernatant from each well was incubated with 180 μL Quanti-blue substrate solution at 37° C. for 2 hrs and the absorbance was read at 620-655 nm using a spectrophotometer. The signalling pathway that TLR7 activation leads to downstream NF-κB activation has been widely accepted, and therefore similar reporter assay was modified for evaluating TLR7 antagonist.

| SMILES | IC50 [nM] |
| --- | --- |
| CC[C@@H]1CN(c2ccc(C#N)c3ncccc23)C[C@H]1CN1CCC2(CCNCC2)CC1 (relative stereo) [Example 15, 5-[Trans-3-(3,9-diazaspiro[5.5]undecan-3-ylmethyl)-4-ethyl-pyrrolidin-1-yl]quinoline-8-carbonitrile] | 107 |
| FC(F)(F)c1ccc(N2C[C@@H](CN3CCC4(CCNC4)C3)[C@H](C(F)(F)F)C2)c2nccnc12 (relative stereo) [Example 19, 5-[Trans-3-(2,7-diazaspiro[4.4]nonan-2-ylmethyl)-4-(trifluoromethyl)pyrrolidin-1-yl]-8-(trifluoromethyl)quinoxaline] | 142 |
| C[C@@H]1CN(c2ccc(C(F)(F)F)c3nccnc23)C[C@H]1CN1CCC2(CCNCC2)CC1 (relative stereo) [Example 21, 3-[[Trans-4-methyl-1-[8-(trifluoromethyl)quinoxalin-5-yl]pyrrolidin-3-yl]methyl]-3,9-diazaspiro[5.5]undecane] | 189 |
| N#Cc1ccc(N2C[C@@H](CN3CCC4(CCNCC4)CC3)[C@H](C(F)F)C2)c2cccnc12 (relative stereo) [Example 27, 5-[Trans-3-(3,9-diazaspiro[5.5]undecan-3-ylmethyl)-4-(difluoromethyl)pyrrolidin-1-yl]quinoline-8-carbonitrile] | 354 |
| N#Cc1ccc(N2C[C@@H](CN3CCC4(CCNCC4)CC3)[C@H](C3CC3)C2)c2cccnc12 (relative stereo) [Example 28, 5-[Trans-3-cyclopropyl-4-(3,9-diazaspiro[5.5]undecan-3-ylmethyl)pyrrolidin-1-yl]quinoline-8-carbonitrile] | 355 |
| CC[C@@H]1CN(c2ccc(C#N)c3ncccc23)C[C@H]1CN1CCC2(CCNC2)C1 (relative stereo) [Example 29, 5-[Trans-3-(2,7-diazaspiro[4.4]nonan-2-ylmethyl)-4-ethyl-pyrrolidin-1-yl]quinoline-8-carbonitrile] | 370 |
| C[C@@H]1CN(c2ccc(C(F)(F)F)c3nccnc23)C[C@H]1CN1CCC(N2CCCCC2)CC1 (relative stereo) [Example 33, 5-[Trans-3-methyl-4-[[4-(1-piperidyl)-1-piperidyl]methyl]pyrrolidin-1-yl]-8-(trifluoromethyl)quinoxaline] | 432 |
| N#Cc1ccc(N2C[C@@H](CN3CCC4(CCNC4)C3)[C@H](C(F)F)C2)c2cccnc12 (relative stereo) [Example 34, 5-[Trans-3-(2,7-diazaspiro[4.4]nonan-2-ylmethyl)-4-(difluoromethyl)pyrrolidin-1-yl]quinoline-8-carbonitrile] | 454 |
| CC(C)[C@@H]1CN(c2ccc(C#N)c3ncccc23)C[C@H]1CN1CCC2(CCNCC2)CC1 (relative stereo) [Example 36, 5-[Trans-3-(3,9-diazaspiro[5.5]undecan-3-ylmethyl)-4-isopropyl-pyrrolidin-1-yl]quinoline-8-carbonitrile] | 471 |
| CC(C)[C@@H]1CN(c2ccc(C#N)c3ncccc23)C[C@H]1CN1CCC2(CCNC2)C1 (relative stereo) [Example 44, 5-[Trans-3-(2,7-diazaspiro[4.4]nonan-2-ylmethyl)-4-isopropyl-pyrrolidin-1-yl]quinoline-8-carbonitrile] | 963 |
| N#Cc1ccc(N2CC(CN3CCC(N)CC3)C3(CC3)C2)c2nccnc12 (single isomer, unassigned) [Example 68A, 8-[7-[(4-Amino-1-piperidyl)methyl]-5-azaspiro[2.4]heptan-5-yl]quinoxaline-5-carbonitrile] | 61 |
| N#Cc1ccc(N2C[C@H](CN3CCC4(CCNCC4)CC3)[C@@H](C(F)(F)F)C2)c2nccnc12 [Example 1, 8-[(3S,4R)-3-(3,9-diazaspiro[5.5]undecan-3-ylmethyl)-4-(trifluoromethyl)pyrrolidin-1-yl]quinoxaline-5-carbonitrile] | 5 |
| N#Cc1ccc(N2C[C@H](CN3CCC4(CCNCC4)CC3)[C@@H](C(F)(F)F)C2)c2cccnc12 [Example 2, 5-[(3S,4R)-3-(3,9-diazaspiro[5.5]undecan-3-ylmethyl)-4-(trifluoromethyl)pyrrolidin-1-yl]quinoline-8-carbonitrile] | 20 |
| N#Cc1ccc(N2C[C@H](CN3CCC4(CCNC4)C3)[C@@H](C(F)(F)F)C2)c2nccnc12 (stereo partly drawn) [Example 5, 8-[(3S,4R)-3-(2,7-diazaspiro[4.4]nonan-2-ylmethyl)-4-(trifluoromethyl)pyrrolidin-1-yl]quinoxaline-5-carbonitrile] | 36 |
| N#Cc1ccc(N2C[C@H](CN3CCC4(CCCNC4)C3)[C@@H](C(F)(F)F)C2)c2cccnc12 (stereo partly drawn) [Example 6, 5-[(3S,7R)-3-(2,9-diazaspiro[4.5]decan-2-ylmethyl)-4-(trifluoromethyl)pyrrolidin-1-yl]quinoline-8-carbonitrile] | 48 |
| CC1(N)CCN(CC2CN(c3ccc(C#N)c4nccnc34)CC23CC3)CC1 (centres unmarked) [Example 7, 8-[7-[(4-Amino-4-methyl-1-piperidyl)methyl]-5-azaspiro[2.4]heptan-5-yl]quinoxaline-5-carbonitrile] | 54 |
| N#Cc1ccc(N2C[C@H](CN3CC4(CCCNC4)C3)[C@@H](C(F)(F)F)C2)c2cccnc12 [Example 8, 5-[(3S,7R)-3-(2,8-diazaspiro[3.5]nonan-2-ylmethyl)-4-(trifluoromethyl)pyrrolidin-1-yl]quinoline-8-carbonitrile] | 57 |
| N#Cc1ccc(N2C[C@H](CN3CCC4(CCNC4)C3)[C@@H](C(F)(F)F)C2)c2cccnc12 (stereo partly drawn) [Example 9, 5-[(3S,4R)-3-(2,7-diazaspiro[4.4]nonan-2-ylmethyl)-4-(trifluoromethyl)pyrrolidin-1-yl]quinoline-8-carbonitrile] | 61 |
| N#Cc1ccc(N2C[C@H](CN3CCC(N4CCCCC4)CC3)[C@@H](C(F)(F)F)C2)c2cccnc12 [Example 10, 5-[(3S,4R)-3-[[4-(1-piperidyl)-1-piperidyl]methyl]-4-(trifluoromethyl)pyrrolidin-1-yl]quinoline-8-carbonitrile] | 69 |
| N#Cc1ccc(N2CC(CN3CCC(N4CCCCC4)CC3)C3(CC3)C2)c2nccnc12 (centres unmarked) [Example 11, 8-[7-[[4-(1-Piperidyl)-1-piperidyl]methyl]-5-azaspiro[2.4]heptan-5-yl]quinoxaline-5-carbonitrile] | 74 |
| CC1(N)CCN(C[C@H]2CN(c3ccc(C#N)c4nccnc34)C[C@@H]2C(F)(F)F)CC1 [Example 12, 8-[(3S,4R)-3-[(4-amino-4-methyl-1-piperidyl)methyl]-4-(trifluoromethyl)pyrrolidin-1-yl]quinoxaline-5-carbonitrile] | 15 |
| N#Cc1ccc(N2CC(CN3CCC4(CCCNC4)CC3)C3(CC3)C2)c2nccnc12 (centres unmarked) [Example 13, 8-[7-(2,9-Diazaspiro[5.5]undecan-9-ylmethyl)-5-azaspiro[2.4]heptan-5-yl]quinoxaline-5-carbonitrile] | 102 |
| N#Cc1ccc(N2C[C@H](CN3CCC4(CCNC4)CC3)[C@@H](C(F)(F)F)C2)c2nccnc12 [Example 14, 8-[(3S,4R)-3-(2,8-Diazaspiro[4.5]decan-8-ylmethyl)-4-(trifluoromethyl)pyrrolidin-1-yl]quinoxaline-5-carbonitrile] | 43 |
